Laboratory results taken from ChEMBL document CHEMBL1201862, “PubChem BioAssay data set” (2004).
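96-well plates; 48 h exposure; 5 concentrations. Endpoints by linear interpolation between flanking doses. Not reached: highest tested concentration assigned. GI50: concentration for 50% inhibition of growth.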 Active and inactive are the calls of the source. Rule as the data show it: active = GI50 up to about 1.1 µM and inactive = higher.

Experiments:
Experiment in all cases: NCI-60 cell line screen, 48 h
SK-OV-3 = system: SK-OV-3
RPMI-8226 = system: RPMI-8226
Hs-578T = system: Hs-578T
MOLT-4 = system: MOLT-4
M14 = system: M14
SF-539 = system: SF-539
UACC-257 = system: UACC-257
PC-3 = system: PC-3
HOP-92 = system: HOP-92
HT-29 = system: HT-29
T47D = system: T47D
RXF 393 = system: RXF 393
BT-549 = system: BT-549
NCI-H522 = system: NCI-H522
LOX IMVI = system: LOX IMVI
A549 = system: A549
TK-10 = system: TK-10
K562 = system: K562
NCI-H460 = system: NCI-H460
SNB-19 = system: SNB-19

Measured: GI50

CC(=O)OC1CCC2(C)C(=CCC3C4CCC5(OC6CC(C)CN(C(C)=O)C6C5C)C(C)=C4C(=O)C32)C1 (stereo not given)
inactive: SK-OV-3 26.5 µM | RPMI-8226 14.6 µM | Hs-578T 16 µM | MOLT-4 5.53 µM | M14 12.7 µM | SF-539 20.4 µM | UACC-257 13.6 µM | PC-3 14.3 µM | HOP-92 15 µM | HT-29 19.9 µM | T47D 7.76 µM | RXF 393 16.6 µM | BT-549 15 µM | NCI-H522 14.9 µM | LOX IMVI 12 µM | A549 14.3 µM | TK-10 24.3 µM | K562 16.3 µM | NCI-H460 15.7 µM | SNB-19 13.7 µM

COc1ccc2nc3cc(Cl)ccc3c(Nc3ccccc3-c3ccccc3Nc3c4ccc(Cl)cc4nc4ccc(OC)cc34)c2c1
inactive: SK-OV-3 > 75.7 µM | RPMI-8226 8.17 µM | Hs-578T 27.7 µM | MOLT-4 3.13 µM | M14 43.6 µM | SF-539 24.2 µM | UACC-257 27.5 µM | PC-3 11.3 µM | HOP-92 31.8 µM | HT-29 10.5 µM | T47D 13.1 µM | RXF 393 14.9 µM | BT-549 15.9 µM | NCI-H522 8.43 µM | LOX IMVI 18.2 µM | A549 45.2 µM | TK-10 64.1 µM | K562 4.63 µM | NCI-H460 33.6 µM | SNB-19 40.4 µM

COC(=O)/C=C/C(=O)Nc1cc(Cl)c(Cl)cc1CC(=O)N(C)[C@H]1CCCC[C@@H]1N1CCCC1
inactive: SK-OV-3 18.1 µM | RPMI-8226 2.63 µM | Hs-578T 18.1 µM | MOLT-4 3.18 µM | M14 7.41 µM | SF-539 5.04 µM | UACC-257 3.05 µM | PC-3 5.05 µM | HOP-92 5.74 µM | HT-29 7.8 µM | T47D 8.73 µM | RXF 393 4.01 µM | BT-549 12.9 µM | NCI-H522 1.79 µM | LOX IMVI 5.3 µM | A549 21.5 µM | TK-10 2.29 µM | K562 3.72 µM | NCI-H460 17.3 µM | SNB-19 18.3 µM

O=C1N[C@H]2C(=O)c3c(Br)sc(Br)c3[C@H]2O1
inactive: SK-OV-3 18.4 µM | RPMI-8226 4.44 µM | Hs-578T 18.7 µM | MOLT-4 2.25 µM | M14 3.08 µM | SF-539 17.4 µM | UACC-257 8.07 µM | PC-3 4.95 µM | HOP-92 14.6 µM | HT-29 2.47 µM | T47D 14.3 µM | RXF 393 3.18 µM | BT-549 14.5 µM | NCI-H522 1.55 µM | LOX IMVI 3.08 µM | A549 19.4 µM | TK-10 22 µM | K562 2.66 µM | NCI-H460 16.8 µM | SNB-19 15.9 µM

CC1Cc2c(cc(N)nc2Br)NC1=O (stereo not given)
inactive: SK-OV-3 > 100 µM | RPMI-8226 > 100 µM | Hs-578T > 100 µM | MOLT-4 43.1 µM | M14 > 100 µM | SF-539 > 100 µM | UACC-257 > 100 µM | PC-3 > 100 µM | HOP-92 45.9 µM | HT-29 > 100 µM | T47D 42.7 µM | RXF 393 81.8 µM | BT-549 92.9 µM | NCI-H522 > 100 µM | LOX IMVI > 100 µM | A549 63.7 µM | TK-10 > 100 µM | K562 63.4 µM | NCI-H460 > 100 µM | SNB-19 > 100 µM

CCCCCCCCCCCCCCCCCCNc1ccn(C2OC(COP(=O)(O)OCC(COP(=O)(O)OCC3OC(n4cc(C)c(=O)[nH]c4=O)CC3N=[N+]=[N-])OCCCCCCCCCCCCCCCCCC)C(O)C2O)c(=O)n1 (stereo not given)
inactive: SK-OV-3 > 100 µM | RPMI-8226 7.46 µM | Hs-578T > 100 µM | MOLT-4 41.5 µM | M14 > 100 µM | SF-539 27 µM | UACC-257 50.1 µM | PC-3 29.4 µM | HOP-92 20.3 µM | HT-29 28.5 µM | T47D 46.7 µM | RXF 393 51.6 µM | BT-549 90.4 µM | NCI-H522 12.6 µM | LOX IMVI 21.2 µM | A549 51.6 µM | TK-10 > 100 µM | K562 > 100 µM | NCI-H460 54.3 µM | SNB-19 19.4 µM

CC1=NN(c2nc(N)nc(C(C)Sc3cc(Cl)c(C)cc3S(N)(=O)=O)n2)C(C)(C)C1 (stereo not given)
inactive: SK-OV-3 > 10 µM | RPMI-8226 > 10 µM | Hs-578T > 10 µM | MOLT-4 > 10 µM | M14 > 10 µM | SF-539 > 10 µM | UACC-257 > 10 µM | PC-3 > 10 µM | HOP-92 > 10 µM | HT-29 > 10 µM | T47D > 10 µM | RXF 393 > 10 µM | BT-549 > 10 µM | NCI-H522 > 10 µM | LOX IMVI > 10 µM | A549 > 10 µM | TK-10 > 10 µM | K562 > 10 µM | NCI-H460 > 10 µM | SNB-19 > 10 µM
